From patent publication US7618958B2, “Stereospecific anxiolytic and anticonvulsant agents with reduced muscle-relaxant, sedative-hypnotic and ataxic effects” (WISYS Technology Foundation, Inc., priority 2004, dated 2009) come the findings set out here.

For one experiment, the target named is T1, α2β3γ2 GABAA receptors (Rattus norvegicus, UniProt P18508+P23576).
T1 construct: expressed in transfected cells; host or cells: Xenopus laevis oocytes injected with cRNA
Description: Two-electrode voltage clamp in Xenopus oocytes, α2β3γ2. In kind it is cell-based. The following applies: FIG. 1, Xenopus oocytes. The procedure: (§1) 1. Effects of SH-053-S—CH3 8 on GABA(A) receptors were tested by two-electrode voltage clamp experiments in cRNA injected Xenopus oocytes that functionally expressed several subtype combinations of GABAA receptors. […] This oocyte profile is indicative of an anxiolytic agent devoid of sedative, ataxic and anterograde amnestic side effects.
(§2) The methods were based on those published previously. See Li, X., et al., (2003) J. Med. Chem. 46: 5567-5570.
(§3) Cloning of GABAA receptor subunits α1, β3 and γ2 into pCDM8 expression vectors (Invitrogen, CA) has been described elsewhere ([…]). GABAA receptor subunit α4 was cloned in an analogous way. cDNAs for subunits α2, α3 and α5 were gifts from P. Malherbe and were subcloned into pCI-vector (Li, et al., 2003). cDNA for subunit α6 was a gift from P. Seeburg and was subcloned into the vector pGEM-3Z (Promega). After linearizing the cDNA vectors with appropriate restriction endonucleases, capped transcripts were produced using the mMessage mMachine T7 transcription kit (Ambion, Tex.). The capped transcripts were polyadenylated using yeast poly(A) polymerase (USB, OH) and were diluted and stored in diethylpyrocarbonate-treated water at −70° C. (Li, et al., 2003). […]
(Two-electrode voltage clamp is typically applied to oocytes expressing channels or transporters.)

The subject of another experiment is Male BALB/c mice. The experiment is described as follows: Light/dark test in mice. In kind it is in vivo, mouse. As to conditions: ip, FIG. 2 A, *p<0.05 vs. vehicle. The procedure:
Male BALB/c mice approximately 8 to 10 weeks old (18-25 grams) served as subjects in the locomotor activity and light/dark assays. Animals were housed in groups of four on a 14 hour light/10 hour dark cycle and were given free access to food and water. All experiments were conducted during the animals' light cycle (0800-1700).
Behavioral testing was conducted in an illuminated open field chamber (11.0″×11.0″; Med Associates MED-OFA-510) equipped with infrared beams and sensors which was placed in a sound attenuating cubicle. Horizontal locomotor activity was measured by recording the total number of beams crossed in a 60 minute period. Anxiolytic-like behavior was assessed using the same chambers with the addition of a Plexiglas insert that is opaque to visible light creating separate darkened and illuminated sides (5.5″×11.0″) of the chamber. An opening in the middle of the dark insert allowed the animals to move freely between each side of the chamber. Animals were place in the center of the illuminated side of the chamber and allowed to freely explore for 10 minutes. The amount of time (sec) that the animals spent in each side of the chamber was recorded. Data were analyzed using one-way analysis of variance and Bonferroni t-tests.
Vehicle and doses of SH-053-S—CH3 8 (10.0-100.0 mg/kg) and SH-053-R-CH3 29 (56.0 mg/kg) were tested in the light/dark and locomotor activity assays. […]

Another experiment addresses T2, α3β3γ2 GABAA receptors (Rattus norvegicus, UniProt P18508+P20236).
T2 construct: expressed in transfected cells; host or cells: Xenopus laevis oocytes injected with cRNA
Description: Two-electrode voltage clamp in Xenopus oocytes, α3β3γ2. The class given is cell-based. The following applies: FIG. 1, Xenopus oocytes. Here is the method:
as §1, §2, §3

T2 sequence (P20236 29-493): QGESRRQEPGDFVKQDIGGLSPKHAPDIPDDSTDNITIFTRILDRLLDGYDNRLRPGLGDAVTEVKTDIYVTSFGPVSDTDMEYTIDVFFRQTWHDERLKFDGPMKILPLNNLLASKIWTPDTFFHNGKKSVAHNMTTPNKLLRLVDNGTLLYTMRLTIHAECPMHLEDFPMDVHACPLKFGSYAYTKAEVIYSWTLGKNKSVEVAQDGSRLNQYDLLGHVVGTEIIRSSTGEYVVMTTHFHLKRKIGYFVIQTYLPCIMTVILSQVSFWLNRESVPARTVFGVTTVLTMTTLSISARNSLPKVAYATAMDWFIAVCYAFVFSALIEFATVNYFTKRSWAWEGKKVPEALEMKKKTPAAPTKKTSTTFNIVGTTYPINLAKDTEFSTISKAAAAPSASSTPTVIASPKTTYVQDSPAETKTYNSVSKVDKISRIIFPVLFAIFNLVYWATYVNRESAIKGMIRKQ
T2 sequence (P63079 26-473 partner): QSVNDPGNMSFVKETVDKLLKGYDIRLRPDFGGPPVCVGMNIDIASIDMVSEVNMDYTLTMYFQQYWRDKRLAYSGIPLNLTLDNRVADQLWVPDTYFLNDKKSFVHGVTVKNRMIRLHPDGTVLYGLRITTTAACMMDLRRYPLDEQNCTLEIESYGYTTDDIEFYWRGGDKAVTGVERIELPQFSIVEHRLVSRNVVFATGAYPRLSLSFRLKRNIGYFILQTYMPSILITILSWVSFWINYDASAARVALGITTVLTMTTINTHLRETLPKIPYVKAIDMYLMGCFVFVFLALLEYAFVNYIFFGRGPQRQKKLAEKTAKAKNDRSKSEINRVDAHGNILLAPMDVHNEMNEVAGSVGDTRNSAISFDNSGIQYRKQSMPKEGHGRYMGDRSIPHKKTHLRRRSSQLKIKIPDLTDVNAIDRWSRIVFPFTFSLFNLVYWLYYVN
T2 sequence (P18508 39-466): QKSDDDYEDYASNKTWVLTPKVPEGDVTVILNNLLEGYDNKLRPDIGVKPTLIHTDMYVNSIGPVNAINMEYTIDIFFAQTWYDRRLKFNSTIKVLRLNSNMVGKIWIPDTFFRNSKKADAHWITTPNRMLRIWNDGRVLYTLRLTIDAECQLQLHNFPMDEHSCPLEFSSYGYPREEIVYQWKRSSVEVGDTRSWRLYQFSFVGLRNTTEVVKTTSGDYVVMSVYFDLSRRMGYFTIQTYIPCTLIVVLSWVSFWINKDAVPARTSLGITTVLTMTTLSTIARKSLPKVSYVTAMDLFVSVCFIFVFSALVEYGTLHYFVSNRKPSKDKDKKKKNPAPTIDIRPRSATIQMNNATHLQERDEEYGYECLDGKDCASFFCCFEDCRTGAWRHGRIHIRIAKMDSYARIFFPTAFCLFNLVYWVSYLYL
T1 sequence (P23576 29-451): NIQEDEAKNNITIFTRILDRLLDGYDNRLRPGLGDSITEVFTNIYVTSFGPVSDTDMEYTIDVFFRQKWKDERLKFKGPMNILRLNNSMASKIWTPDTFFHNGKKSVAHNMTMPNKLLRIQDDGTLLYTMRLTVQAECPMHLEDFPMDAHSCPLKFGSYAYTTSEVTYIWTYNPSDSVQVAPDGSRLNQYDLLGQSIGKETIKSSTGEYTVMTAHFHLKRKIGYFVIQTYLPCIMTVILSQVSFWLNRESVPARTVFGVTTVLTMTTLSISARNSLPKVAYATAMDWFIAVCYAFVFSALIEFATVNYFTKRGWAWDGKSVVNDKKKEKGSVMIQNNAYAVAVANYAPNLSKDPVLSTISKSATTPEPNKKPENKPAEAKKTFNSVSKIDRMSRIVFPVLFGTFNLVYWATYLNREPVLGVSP
T1 sequence (P63079 26-473 partner): as the sequence (P63079 26-473 partner) above
T1 sequence (P18508 39-466): as the sequence (P18508 39-466) above

Regarding `C#Cc1ccc2c(c1)C(c1ccccc1)=NC(C)c1c(C(=O)OCC)ncn1-2` (stereo not drawn) [SH-053-S—CH3, 8-Ethynyl-4-methyl-6-phenyl-4H-2,5,10b-triaza-benzo[e]azulene-3-carboxylic acid ethyl ester], on α2β3γ2 GABAA receptors, the “efficacy at α2β3γ2 subtypes” value is on record as “agonist”. The “time spent in the lighted chamber in the light/dark test” value with Male BALB/c mice is “increased time spent in the lighted chamber”. Also, at α3β3γ2 GABAA receptors, the “efficacy at α3β3γ2 subtypes” value was “agonist”.
